Experimental findings from ChEMBL document CHEMBL1138184, “Synthesis and structure-activity relationship studies of 1,3-diarylprop-2-yn-1-ones: dual inhibitors of cyclooxygenases and lipoxygenases” (J Med Chem, 2006) are described below.

Broadly, the IC50 is the midpoint of a concentration-inhibition curve. Read a high IC50 as a need for much substance. What is called inhibition in vivo is the share of the control response that was lost under treatment. A high value points to a response far below the control. One may read the ED50 as the dose at which the effect has come halfway, by size or by number of responders. A lower ED50 goes with an effect at a small dose.

Test [1] concerns the target T1, 5-lipoxygenase (Solanum tuberosum, UniProt O49150).
T1 sequence (O49150 whole entry): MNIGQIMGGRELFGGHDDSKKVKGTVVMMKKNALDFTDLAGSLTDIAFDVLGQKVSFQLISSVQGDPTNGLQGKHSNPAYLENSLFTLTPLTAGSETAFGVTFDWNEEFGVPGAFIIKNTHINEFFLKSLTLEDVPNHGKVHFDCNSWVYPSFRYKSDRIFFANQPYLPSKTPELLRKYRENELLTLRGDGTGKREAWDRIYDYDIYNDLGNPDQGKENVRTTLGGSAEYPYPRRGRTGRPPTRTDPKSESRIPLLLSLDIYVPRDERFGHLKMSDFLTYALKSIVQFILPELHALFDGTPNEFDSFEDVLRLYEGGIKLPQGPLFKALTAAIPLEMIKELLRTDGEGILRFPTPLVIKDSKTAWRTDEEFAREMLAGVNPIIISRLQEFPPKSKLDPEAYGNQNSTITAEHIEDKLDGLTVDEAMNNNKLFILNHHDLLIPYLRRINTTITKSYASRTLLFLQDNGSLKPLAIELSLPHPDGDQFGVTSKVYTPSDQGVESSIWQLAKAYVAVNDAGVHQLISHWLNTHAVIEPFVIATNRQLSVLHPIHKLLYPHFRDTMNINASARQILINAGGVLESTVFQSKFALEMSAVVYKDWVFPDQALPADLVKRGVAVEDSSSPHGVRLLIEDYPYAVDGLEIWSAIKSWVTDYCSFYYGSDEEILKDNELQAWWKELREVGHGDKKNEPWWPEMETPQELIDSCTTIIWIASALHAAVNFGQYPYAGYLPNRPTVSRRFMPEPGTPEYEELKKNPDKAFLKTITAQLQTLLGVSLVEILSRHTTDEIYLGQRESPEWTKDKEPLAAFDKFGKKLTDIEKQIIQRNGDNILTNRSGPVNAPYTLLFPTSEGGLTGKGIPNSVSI
The test is described as follows: Inhibitory activity against potato 5LOX.

Test [2] relates to Rattus norvegicus. The test is described as follows: Anti-inflammatory activity against carrageenan-induced edema in Sprague-Dawley rat paw after 3 hrs of 30 mg/kg, po. Format: functional. (In general: The carrageenan paw model is a standard test of acute inflammation.)
In test [3] the test system is Rattus norvegicus. The test is described as follows: Inhibitory activity against 4% NaCl-induced abdominal constriction in Sprague-Dawley rat after 30 min of 30 mg/kg, po. The test is classed as functional. The following applies: Abdomen, 0.5 h.
In test [4] the test system is Rattus norvegicus. The test is described as follows: Inhibitory activity against 4% NaCl-induced abdominal constriction in Sprague-Dawley rat after 60 min of 30 mg/kg, po. The test is classed as functional. The following applies: Abdomen, 1 h.
Test [5] addresses T2, Prostaglandin G/H synthase 1 (Ovis aries, UniProt P05979).
T2 sequence (P05979 whole entry): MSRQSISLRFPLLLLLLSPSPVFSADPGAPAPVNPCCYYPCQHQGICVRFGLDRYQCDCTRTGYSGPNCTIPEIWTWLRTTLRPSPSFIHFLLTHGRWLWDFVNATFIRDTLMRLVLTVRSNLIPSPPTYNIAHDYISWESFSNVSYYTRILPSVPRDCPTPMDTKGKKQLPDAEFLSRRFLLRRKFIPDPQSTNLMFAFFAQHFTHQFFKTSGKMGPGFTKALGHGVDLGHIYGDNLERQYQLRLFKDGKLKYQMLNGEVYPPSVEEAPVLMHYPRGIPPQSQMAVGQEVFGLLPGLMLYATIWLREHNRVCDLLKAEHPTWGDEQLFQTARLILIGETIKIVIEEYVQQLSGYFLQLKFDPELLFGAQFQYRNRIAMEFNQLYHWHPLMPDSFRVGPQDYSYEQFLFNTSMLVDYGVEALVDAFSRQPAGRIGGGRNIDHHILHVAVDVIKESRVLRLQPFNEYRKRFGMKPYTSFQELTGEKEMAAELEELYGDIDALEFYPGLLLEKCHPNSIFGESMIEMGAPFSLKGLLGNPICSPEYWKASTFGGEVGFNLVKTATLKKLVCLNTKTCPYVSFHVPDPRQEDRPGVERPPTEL
The test is described as follows: Inhibitory activity against ovine COX1.

For test [6], the target named is T3, Seed linoleate 13S-lipoxygenase-1 (Glycine max, UniProt P08170).
T3 sequence (P08170 whole entry): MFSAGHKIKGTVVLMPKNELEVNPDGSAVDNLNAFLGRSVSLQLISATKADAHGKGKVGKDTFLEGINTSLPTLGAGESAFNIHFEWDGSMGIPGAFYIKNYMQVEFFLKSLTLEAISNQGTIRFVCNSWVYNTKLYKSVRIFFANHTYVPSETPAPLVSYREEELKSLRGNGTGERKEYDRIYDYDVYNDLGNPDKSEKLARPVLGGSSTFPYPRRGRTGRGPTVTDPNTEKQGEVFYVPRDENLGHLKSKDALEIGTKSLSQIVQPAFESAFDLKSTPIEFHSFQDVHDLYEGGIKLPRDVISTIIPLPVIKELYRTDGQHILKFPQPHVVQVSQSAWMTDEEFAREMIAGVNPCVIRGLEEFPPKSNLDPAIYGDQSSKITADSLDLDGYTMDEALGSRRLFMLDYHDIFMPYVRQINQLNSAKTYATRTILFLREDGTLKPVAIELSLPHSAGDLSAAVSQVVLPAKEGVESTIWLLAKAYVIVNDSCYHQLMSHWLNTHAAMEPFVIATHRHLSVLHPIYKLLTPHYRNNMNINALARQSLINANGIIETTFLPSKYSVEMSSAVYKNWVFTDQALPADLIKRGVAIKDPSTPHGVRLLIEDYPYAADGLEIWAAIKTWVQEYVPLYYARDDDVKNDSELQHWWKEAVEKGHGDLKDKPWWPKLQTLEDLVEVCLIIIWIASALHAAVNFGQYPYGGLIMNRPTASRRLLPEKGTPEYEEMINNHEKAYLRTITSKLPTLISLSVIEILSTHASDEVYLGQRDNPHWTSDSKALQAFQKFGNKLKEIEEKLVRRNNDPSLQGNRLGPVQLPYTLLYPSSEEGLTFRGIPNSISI
Description: Inhibitory activity against soybean 15LOX

With `CS(=O)(=O)c1ccc(C#CC(=O)c2ccc(C(F)(F)F)cc2)cc1`, the half-maximal inhibitory concentration (IC50) in test [1] was above 10 µM. Further, the inhibition in vivo at 30 mg/kg in test [2] came out at 16.2%; in test [3] it was 38%; in test [4] it was 66.2%.

Turning to `CS(=O)(=O)c1ccc(C#CC(=O)c2ccc(O)cc2)cc1`, in test [1], the midpoint of inhibition, the IC50, lay at 0.3 µM. Besides, the ED50 in test [2] turned out to be 51.3 mg/kg. Besides, the inhibition in vivo at 30 mg/kg in test [2] was found to be 37.4%; in test [3] it was 52.4%; in test [4], 56.6%.

In test [1], `COc1cccc(C(=O)C#Cc2ccc(S(C)(=O)=O)cc2)c1` returned a half-maximal inhibitory concentration (IC50) of 9 µM. Besides, the inhibition in vivo at 30 mg/kg in test [2] is 24.2%; in test [3] it was 72.6%; in test [4], 54.7%.

As for `COc1cc(C(=O)C#Cc2ccc(S(C)(=O)=O)cc2)cc(OC)c1OC`, the midpoint of inhibition in test [1], the IC50, lay at 7 µM. It took a dose of 113 mg/kg to reach the 50% effect level in test [2] (ED50). Also, the values for the inhibition in vivo at 30 mg/kg in test [2], in test [3] and in test [4] were 35.7%, 60.2% and 46.2%, respectively.

In turn, `Cc1ccc(C(=O)C#Cc2ccc(S(C)(=O)=O)cc2)cc1` returned a concentration for half-maximal inhibition (IC50) in test [1] above 10 µM.

In test [1], `COc1ccc(C(=O)C#Cc2ccc(S(C)(=O)=O)cc2)cc1O` had an IC50 above 10 µM.

In test [1], `CS(=O)(=O)c1ccc(C#CC(=O)c2ccc(F)c(F)c2)cc1` returned a 50% inhibitory concentration (IC50) of 0.4 µM. Besides, the inhibition in vivo at 30 mg/kg is 6.8% in test [2], 50.8% in test [3] and 46.1% in test [4].

`COc1ccc(C(=O)C#Cc2ccc(S(C)(=O)=O)cc2)cc1OC`: the half-inhibitory concentration (IC50) in test [1] was 1 µM; in test [5], 3.3 µM; in test [6] it was above 10 µM.

Turning to `CS(=O)(=O)c1ccc(C#CC(=O)c2ccc([N+](=O)[O-])cc2)cc1`, the results for the half-maximal inhibitory concentration (IC50) in test [1], in test [5] and in test [6] were 6.2 µM, 0.25 µM and above 10 µM, respectively.

For `CCCCc1ccc(C(=O)C#Cc2ccc(S(C)(=O)=O)cc2)cc1`, the IC50 in test [1] is 4.5 µM; in test [5] it was above 100 µM; in test [6], above 10 µM.

`CS(=O)(=O)c1ccc(C#CC(=O)c2cccc3ccccc23)cc1`: the IC50 is above 10 µM in test [1], above 100 µM in test [5] and above 10 µM in test [6]. The inhibition in vivo at 30 mg/kg in test [2] is 8.8%; in test [3] it was 56.4%; in test [4], 40.3%.

With `CS(=O)(=O)c1ccc(C#CC(=O)c2ccno2)cc1`, the half-maximal inhibitory concentration (IC50) is 1.5 µM in test [1], 32.2 µM in test [5] and above 10 µM in test [6].

For the compound `CC(C)c1ccc(C(=O)C#Cc2ccc(S(C)(=O)=O)cc2)cc1`, the ED50 in test [2] came to 35 mg/kg. In addition, the inhibition in vivo at 30 mg/kg in test [2] turned out to be 48.1%; in test [3], 40.7%; in test [4] it was 53.7%. In addition, the results for the half-maximal inhibitory concentration (IC50) in test [5] and in test [6] were 9.2 µM and 0.36 µM, respectively.

Consider `COC(=O)c1ccc(C(=O)C#Cc2ccc(S(C)(=O)=O)cc2)cc1`, for which the figures for the half-inhibitory concentration (IC50) in test [1], in test [5] and in test [6] were above 10 µM, above 100 µM and 5 µM, respectively. Besides, the inhibition in vivo at 30 mg/kg was found to be 21.5% in test [2], 56.2% in test [3] and 71.2% in test [4].

As for `CS(=O)(=O)c1ccc(C#CC(=O)c2ccoc2)cc1`, the half-inhibitory concentration (IC50) was 0.1 µM in test [1], 1 µM in test [5] and above 10 µM in test [6]. Moreover, the inhibition in vivo at 30 mg/kg in test [2] stood at 26.4%; in test [3], 57.7%; in test [4], 76.6%.

For the compound `CS(=O)(=O)c1ccc(C#CC(=O)c2ccc(S(C)(=O)=O)cc2)cc1`, the values for the IC50 in test [1], in test [5] and in test [6] were above 10 µM, above 100 µM and above 10 µM, respectively.

For the compound `COc1ccc(C(=O)C#Cc2ccc(S(C)(=O)=O)cc2)c2ccccc12`, the half-maximal inhibitory concentration (IC50) in test [1] is above 10 µM; in test [5], above 100 µM; in test [6], 0.3 µM. Further, the inhibition in vivo at 30 mg/kg in test [2] was 24%; in test [3], 56.7%; in test [4], 36.7%.

For the compound `CSc1ccc(C(=O)C#Cc2ccc(S(C)(=O)=O)cc2)cc1`, the half-maximal inhibitory concentration (IC50) in test [5] stood at 9.2 µM; in test [6], 0.36 µM.

As for `CCCc1ccc(C(=O)C#Cc2ccc(S(C)(=O)=O)cc2)cc1`, the IC50 in test [1], in test [5] and in test [6] was 3.2 µM each time.

In test [2], `CS(=O)(=O)c1ccc(C#CC(=O)c2ccc(C#N)cc2)cc1` registered an ED50 of 90 mg/kg. The inhibition in vivo at 30 mg/kg in test [2] worked out at 29.6%; in test [3], 48.6%; in test [4], 36.2%.

In test [1], `CS(=O)(=O)c1ccc(C#CC(=O)c2cccc(O)c2)cc1` gave an IC50 of 0.3 µM.

In test [1], `COc1ccc(C(=O)C#Cc2ccc(S(C)(=O)=O)cc2)cc1` showed an IC50 above 10 µM. The compound also had a 50% effective dose (ED50) in test [2] of 60.1 mg/kg. Also, the inhibition in vivo at 30 mg/kg in test [2] is 30.2%; in test [3], 42.7%; in test [4], 38.6%.

Compound `COc1cc(C(=O)C#Cc2ccc(S(C)(=O)=O)cc2)ccc1O` registered an IC50 in test [1] above 10 µM. In addition, the inhibition in vivo at 30 mg/kg in test [2] came out at 26%; in test [3] it was 15.4%; in test [4] it was 45.8%.

With `CS(=O)(=O)c1ccc(C#CC(=O)c2cccc([N+](=O)[O-])c2)cc1`, the half-maximal inhibitory concentration (IC50) is above 10 µM in test [1], 2 µM in test [5] and 3.5 µM in test [6].

On to `CS(=O)(=O)c1ccc(C#CC(=O)c2ccc(F)cc2)cc1`, for which the IC50 in test [1] was above 10 µM. The inhibition in vivo at 30 mg/kg is 26.3% in test [2], 83.8% in test [3] and 72% in test [4].

In turn, `CC(=O)Oc1ccccc1C(=O)O` [ASPIRIN] returned an ED50 in test [2] of 129 mg/kg. Besides, the inhibition in vivo at 30 mg/kg in test [3] came out at 29.7%; in test [4] it was 46.4%.

`O=C(O)/C=C/c1ccc(O)c(O)c1` [CAFFEIC ACID]: the inhibition in vivo at 30 mg/kg in test [2] worked out at 8.2%; in test [3], 47.2%; in test [4], 58.3%.

In the case of `CC(Cc1ccc(O)c(O)c1)C(C)Cc1ccc(O)c(O)c1` (stereo not given) [NORDIHYDROGUAIARETIC ACID], the 50% effect level in test [2] (ED50) was put at a dose of 205 mg/kg. Also, the results for the inhibition in vivo at 30 mg/kg in test [2], in test [3] and in test [4] were 15.1%, 45.8% and 62.5%, respectively.
